{"source": "patent US6737383B1", "about": "“Herbicidal oxadiazolidines” (priority 1999, dated 2004)", "key": {"surinam grass": {"tested_on": "surinam grass", "assay": "Test B pre/postemergence surinam grass", "type": "in vivo, Brachiaria decumbens", "method_in_brief": "(§1)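 Herbicidal effect was estimated by eye on a ten-point control scale after plants spent twelve to sixteen days in a greenhouse following soil or foliar treatment. Foliar sprays targeted plants at one to four leaves; all doses were formulated in a non-phytotoxic solvent with surfactant.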"}, "cocklebur": {"tested_on": "cocklebur", "assay": "Test B pre/postemergence cocklebur", "type": "in vivo, Xanthium strumarium", "method_in_brief": "as §1"}, "corn": {"tested_on": "corn", "assay": "Test B pre/postemergence corn", "type": "in vivo, Zea mays", "method_in_brief": "as §1"}, "crabgrass": {"tested_on": "crabgrass", "assay": "Test B pre/postemergence crabgrass", "type": "in vivo, Digitaria sanguinalis", "method_in_brief": "as §1"}, "giant foxtail": {"tested_on": "giant foxtail", "assay": "Test B pre/postemergence giant foxtail", "type": "in vivo, Setaria faberii", "method_in_brief": "as §1"}, "morningglory": {"tested_on": "morningglory", "assay": "Test B pre/postemergence morningglory", "type": "in vivo, Ipomoea hederacea", "method_in_brief": "as §1"}, "pigweed": {"tested_on": "pigweed", "assay": "Test B pre/postemergence pigweed", "type": "in vivo, Amaranthus retroflexus", "method_in_brief": "as §1"}, "rape": {"tested_on": "rape", "assay": "Test B pre/postemergence rape", "type": "in vivo, Brassica napus", "method_in_brief": "as §1"}, "soybean": {"tested_on": "soybean", "assay": "Test B pre/postemergence soybean", "type": "in vivo, Glycine max", "method_in_brief": "as §1"}, "sugar beet": {"tested_on": "sugar beet", "assay": "Test B pre/postemergence sugar beet", "type": "in vivo, Beta vulgaris", "method_in_brief": "as §1"}, "wild oat": {"tested_on": "wild oat", "assay": "Test B pre/postemergence wild oat", "type": "in vivo, Avena fatua", "method_in_brief": "as §1"}, "purple nutsedge": {"tested_on": "purple nutsedge", "assay": "Test B pre/postemergence purple nutsedge", "type": "in vivo, Cyperus rotundus", "settings": "Postemergence", "method_in_brief": "as §1"}, "rice": {"tested_on": "rice", "assay": "Test B flood test rice", "type": "in vivo, Oryza sativa", "method_in_brief": "(§2)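 Flood test on plants grown to the 2-leaf stage; treated plants kept in greenhouse twelve to sixteen days, then visually rated against controls on a 0 (no effect) to 10 (complete control) scale.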"}, "smallflower flatsedge": {"tested_on": "smallflower flatsedge", "assay": "Test B flood test smallflower flatsedge", "type": "in vivo, Cyperus difformis", "method_in_brief": "as §2"}, "duck salad": {"tested_on": "duck salad", "assay": "Test B flood test duck salad", "type": "in vivo, Heteranthera limosa", "method_in_brief": "as §2"}, "bamyardgrass": {"tested_on": "bamyardgrass", "assay": "Test B flood test barnyardgrass", "type": "in vivo, Echinochloa crus-galli", "method_in_brief": "as §2"}, "[1]": {"settings": "Preemergence, Rate 62 g/ha, scale of 0 to 10 where 0 is no effect and 10 is complete control"}, "[2]": {"settings": "Preemergence, Rate 250 g/ha, scale of 0 to 10 where 0 is no effect and 10 is complete control"}, "[3]": {"settings": "Preemergence, Rate 500 g/ha, scale of 0 to 10 where 0 is no effect and 10 is complete control"}, "[4]": {"settings": "Rate 62 g/ha, Postemergence, scale of 0 to 10 where 0 is no effect and 10 is complete control"}, "[5]": {"settings": "Rate 125 g/ha, Preemergence, scale of 0 to 10 where 0 is no effect and 10 is complete control"}, "[6]": {"settings": "Rate 500 g/ha, Postemergence, scale 0 to 10, 0 no effect, 10 complete control"}, "[7]": {"settings": "Rate 125 g/ha, Postemergence, scale 0 to 10"}, "[8]": {"settings": "Rate 62 g/ha, headed Pre-emergence (flood test species), scale 0 to 10 (0 no effect, 10 complete control)"}, "[9]": {"settings": "Rate 125 g/ha, Pre-emergence, flood test species, scale 0 to 10 where 0 is no effect and 10 is complete control"}, "[10]": {"settings": "Rate 250 g/ha, Pre-emergence, flood-test species, scale 0 to 10, 0 is no effect, 10 is complete control"}, "[11]": {"settings": "Rate 500 g/ha, Pre-emergence, flood test species, scale 0 to 10 (0 no effect, 10 complete control)"}}}
{"smiles": "[2H]C([2H])([2H])n1c(=O)on(C(=O)N(c2ccc(F)cc2)C(C)C)c1=O", "note": "[Compound 245]", "values": [{"measurement": "B. signalgrass plant response rating", "setting": "surinam grass; [1]", "result": 3}, {"measurement": "B. signalgrass plant response rating", "setting": "surinam grass; [2]", "result": 8}, {"measurement": "Plant response rating, B. signalgrass", "setting": "surinam grass; [3]", "result": 10}, {"measurement": "B. signalgrass plant response rating", "setting": "surinam grass; [4]", "result": 1}, {"measurement": "B. signalgrass plant response rating", "setting": "surinam grass; Rate 125 g/ha, Postemergence, scale 0 (no effect) to 10 (complete control)", "result": 4}, {"measurement": "B. signalgrass plant response rating", "setting": "surinam grass; [5]", "result": 7}, {"measurement": "Plant response rating (0 to 10; 0 is no effect, 10 is complete control), B. signalgrass", "setting": "surinam grass; Rate 250 g/ha, Postemergence", "result": 6}, {"measurement": "B. signalgrass plant response rating", "setting": "surinam grass; [6]", "result": 8}, {"measurement": "Cocklebur plant response rating", "setting": "cocklebur; [1]", "result": 0}, {"measurement": "Cocklebur plant response rating", "setting": "cocklebur; [2]", "result": 2}, {"measurement": "Plant response rating, Cocklebur", "setting": "cocklebur; [3]", "result": 6}, {"measurement": "Cocklebur plant response rating", "setting": "cocklebur; [4]", "result": 0}, {"measurement": "Cocklebur plant response rating", "setting": "cocklebur; [7]", "result": 0}, {"measurement": "Cocklebur plant response rating", "setting": "cocklebur; [5]", "result": 2}, {"measurement": "Plant response rating (0 to 10; 0 is no effect, 10 is complete control), Cocklebur", "setting": "cocklebur; Rate 250 g/ha, Postemergence", "result": 0}, {"measurement": "Cocklebur plant response rating", "setting": "cocklebur; [6]", "result": 1}, {"measurement": "Corn plant response rating", "setting": "corn; [1]", "result": 3}, {"measurement": "Corn plant response rating", "setting": "corn; [2]", "result": 7}, {"measurement": "Plant response rating, Corn", "setting": "corn; [3]", "result": 8}, {"measurement": "Corn plant response rating", "setting": "corn; [4]", "result": 0}, {"measurement": "Corn plant response rating", "setting": "corn; [7]", "result": 4}, {"measurement": "Corn plant response rating", "setting": "corn; [5]", "result": 5}, {"measurement": "Plant response rating (0 to 10; 0 is no effect, 10 is complete control), Corn", "setting": "corn; Rate 250 g/ha, Postemergence", "result": 5}, {"measurement": "Corn plant response rating", "setting": "corn; [6]", "result": 7}, {"measurement": "Crabgrass plant response rating", "setting": "crabgrass; [1]", "result": 9}, {"measurement": "Crabgrass plant response rating", "setting": "crabgrass; [2]", "result": 9}, {"measurement": "Plant response rating, Crabgrass", "setting": "crabgrass; [3]", "result": 10}, {"measurement": "Crabgrass plant response rating", "setting": "crabgrass; [4]", "result": 2}, {"measurement": "Crabgrass plant response rating", "setting": "crabgrass; [5]", "result": 9}, {"measurement": "Plant response rating (0 to 10; 0 is no effect, 10 is complete control), Crabgrass", "setting": "crabgrass; Rate 250 g/ha, Postemergence", "result": 8}, {"measurement": "Crabgrass plant response rating", "setting": "crabgrass; [6]", "result": 8}, {"measurement": "Giant foxtail plant response rating", "setting": "giant foxtail; [1]", "result": 9}, {"measurement": "Giant foxtail plant response rating", "setting": "giant foxtail; [2]", "result": 10}, {"measurement": "Plant response rating, Giant foxtail", "setting": "giant foxtail; [3]", "result": 10}, {"measurement": "Giant foxtail plant response rating", "setting": "giant foxtail; [4]", "result": 5}, {"measurement": "Giant foxtail plant response rating", "setting": "giant foxtail; [5]", "result": 9}, {"measurement": "Plant response rating (0 to 10; 0 is no effect, 10 is complete control), Giant foxtail", "setting": "giant foxtail; Rate 250 g/ha, Postemergence", "result": 8}, {"measurement": "Giant foxtail plant response rating", "setting": "giant foxtail; [6]", "result": 8}, {"measurement": "Morningglory plant response rating", "setting": "morningglory; [1]", "result": 0}, {"measurement": "Morningglory plant response rating", "setting": "morningglory; [2]", "result": 6}, {"measurement": "Plant response rating, Morningglory", "setting": "morningglory; [3]", "result": 6}, {"measurement": "Morningglory plant response rating", "setting": "morningglory; [4]", "result": 5}, {"measurement": "Morningglory plant response rating", "setting": "morningglory; [5]", "result": 1}, {"measurement": "Plant response rating (0 to 10; 0 is no effect, 10 is complete control), Morningglory", "setting": "morningglory; Rate 250 g/ha, Postemergence", "result": 9}, {"measurement": "Morningglory plant response rating", "setting": "morningglory; [6]", "result": 9}, {"measurement": "Redroot pigweed plant response rating", "setting": "pigweed; [1]", "result": 8}, {"measurement": "Redroot pigweed plant response rating", "setting": "pigweed; [2]", "result": 10}, {"measurement": "Plant response rating, Redroot pigweed", "setting": "pigweed; [3]", "result": 10}, {"measurement": "Redroot pigweed plant response rating", "setting": "pigweed; [4]", "result": 3}, {"measurement": "Redroot pigweed plant response rating", "setting": "pigweed; [5]", "result": 10}, {"measurement": "Plant response rating (0 to 10; 0 is no effect, 10 is complete control), Redroot pigweed", "setting": "pigweed; Rate 250 g/ha, Postemergence", "result": 9}, {"measurement": "Redroot pigweed plant response rating", "setting": "pigweed; [6]", "result": 9}, {"measurement": "Rape plant response rating", "setting": "rape; [1]", "result": 3}, {"measurement": "Rape plant response rating", "setting": "rape; [2]", "result": 10}, {"measurement": "Plant response rating, Rape", "setting": "rape; [3]", "result": 10}, {"measurement": "Rape plant response rating", "setting": "rape; [4]", "result": 0}, {"measurement": "Rape plant response rating", "setting": "rape; [5]", "result": 4}, {"measurement": "Plant response rating (0 to 10; 0 is no effect, 10 is complete control), Rape", "setting": "rape; Rate 250 g/ha, Postemergence", "result": 2}, {"measurement": "Rape plant response rating", "setting": "rape; [6]", "result": 5}, {"measurement": "Soybean plant response rating", "setting": "soybean; [1]", "result": 0}, {"measurement": "Soybean plant response rating", "setting": "soybean; [2]", "result": 2}, {"measurement": "Plant response rating, Soybean", "setting": "soybean; [3]", "result": 8}, {"measurement": "Soybean plant response rating", "setting": "soybean; [4]", "result": 2}, {"measurement": "Soybean plant response rating", "setting": "soybean; [5]", "result": 2}, {"measurement": "Soybean plant response rating", "setting": "soybean; [6]", "result": 5}, {"measurement": "Sugarbeets plant response rating", "setting": "sugar beet; [1]", "result": 3}, {"measurement": "Sugarbeets plant response rating", "setting": "sugar beet; [2]", "result": 10}, {"measurement": "Plant response rating, Sugarbeets", "setting": "sugar beet; [3]", "result": 10}, {"measurement": "Sugarbeets plant response rating", "setting": "sugar beet; [4]", "result": 1}, {"measurement": "Sugarbeets plant response rating", "setting": "sugar beet; [5]", "result": 8}, {"measurement": "Sugarbeets plant response rating", "setting": "sugar beet; [6]", "result": 7}, {"measurement": "Wild oats plant response rating", "setting": "wild oat; [1]", "result": 3}, {"measurement": "Wild oats plant response rating", "setting": "wild oat; [2]", "result": 10}, {"measurement": "Plant response rating, Wild oats", "setting": "wild oat; [3]", "result": 10}, {"measurement": "Wild oats plant response rating", "setting": "wild oat; [4]", "result": 0}, {"measurement": "Wild oats plant response rating", "setting": "wild oat; [5]", "result": 5}, {"measurement": "Wild oats plant response rating", "setting": "wild oat; [6]", "result": 8}, {"measurement": "Nutsedge plant response rating", "setting": "purple nutsedge; Rate 62 g/ha, scale of 0 to 10 where 0 is no effect and 10 is complete control", "result": 0}, {"measurement": "Plant response rating (0 to 10; 0 is no effect, 10 is complete control), Nutsedge", "setting": "purple nutsedge; Rate 250 g/ha", "result": 0}, {"measurement": "Nutsedge plant response rating", "setting": "purple nutsedge; Rate 500 g/ha, scale 0 to 10, 0 no effect, 10 complete control", "result": 0}, {"measurement": "Rice plant response rating", "setting": "rice; [8]", "result": 0}, {"measurement": "Rice plant response rating", "setting": "rice; [9]", "result": 0}, {"measurement": "Rice plant response rating", "setting": "rice; [10]", "result": 0}, {"measurement": "Rice plant response rating", "setting": "rice; [11]", "result": 0}, {"measurement": "S. Flatsedge plant response rating", "setting": "smallflower flatsedge; [8]", "result": 0}, {"measurement": "S. Flatsedge plant response rating", "setting": "smallflower flatsedge; [9]", "result": 0}, {"measurement": "S. Flatsedge plant response rating", "setting": "smallflower flatsedge; [10]", "result": 0}, {"measurement": "S. Flatsedge plant response rating", "setting": "smallflower flatsedge; [11]", "result": 0}, {"measurement": "Ducksalad plant response rating", "setting": "duck salad; [8]", "result": 0}, {"measurement": "Ducksalad plant response rating", "setting": "duck salad; [9]", "result": 0}, {"measurement": "Ducksalad plant response rating", "setting": "duck salad; [10]", "result": 0}, {"measurement": "Ducksalad plant response rating", "setting": "duck salad; [11]", "result": 0}, {"measurement": "Barnyardgrass plant response rating", "setting": "bamyardgrass; [8]", "result": 0}, {"measurement": "Barnyardgrass plant response rating", "setting": "bamyardgrass; [9]", "result": 0}, {"measurement": "Barnyardgrass plant response rating", "setting": "bamyardgrass; [10]", "result": 0}, {"measurement": "Barnyardgrass plant response rating", "setting": "bamyardgrass; [11]", "result": 0}]}
